Our source for the EC50 and IC50 values is patent US6534523B1, “Hepatitis C inhibitor tri-peptides” (Boehringer Ingelheim (Canada) Ltd., priority 1998, dated 2003).

SMILES strings stand for the structures.

For assay [1], the system named is NS3 protease in Huh-7 cells co-transfected with NS3-NS4A-NS4B-NS5A-tTA and SEAP constructs. The experiment in a line: NS3 protease surrogate cell-based assay (Example 39), SEAP reporter. Conditions: Homo sapiens, SEAP activity, 24-h incubation, read-out: EC50 as determined by the assay of Example 39. From the text: NS3 Protease Cell-based Assay
This assay was done with Huh-7 cells, a human cell line derived from a hepatoma, co-transfected with 2 DNA constructs:
one expressing a polyprotein comprising the HCV non-structural proteins fused to tTA in the following order: NS3-NS4A-NS4B-NS5A-tTA (called NS3);
the other expressing the reporter protein, secreted alkaline phosphatase, under the control of tTA (called SEAP).
The polyprotein must be cleaved by the NS3 protease for the mature proteins to be released. Upon release of the mature proteins, it is believed that the viral proteins will form a complex at the membrane of the endoplasmic reticulum while tTA will migrate to the nucleus and transactivate the SEAP gene. Therefore, reduction of NS3 proteolytic activity should lead to reduction of mature tTA levels and concomitant decrease in SEAP activity.
To control for other effects of the compounds, a parallel transfection was done where a construct expressing tTA alone (called tTA) was co-transfected with the SEAP construct such that SEAP activity is independent of NS3 proteolytic activity. […] After a 24-h incubation period, an aliquot of the medium was drawn and the SEAP activity in this aliquot was measured with the Phospha-Light kit (Tropix). […]

Assay [2] addresses T1, full length NS3-NS4A heterodimer protein (His-NS3-NS4AFL) (Hepatitis C virus genotype 1b, UniProt P26663).
T1 construct: The full length mature NS3 and NS4A heterodimer protein (His-NS3-NS4AFL) was expressed; made in house; host or cells: Sf21 insect cells, recombinant baculovirus
Kind of assay: Full-length NS3-NS4A heterodimer protein assay (Example 38). The assay is classed as biochemical, HCV genotype 1b. The source says:
Full-length NS3-NS4A Heterodimer Protein Assay
The NS2-NS5B-3′ non coding region was cloned by RT-PCR into the pCR®3 vector (Invitrogen) using RNA extracted from the serum of an HCV genotype 1b infected individual (provided by Dr. Bernard Willems, Hôpital St-Luc, Montréal, Québec, Canada). The NS3-NS4A DNA region was then subcloned by PCR into the pFastBac™ HTa baculovirus expression vector (Gibco/BRL). The vector sequence includes a region encoding a 28-residue N-terminal sequence which contains a hexahistidine tag. The Bac-to-Bac™ baculovirus expression system (Gibco/BRL) was used to produce the recombinant baculovirus. The full length mature NS3 and NS4A heterodimer protein (His-NS3-NS4AFL) was expressed by infecting 10^6 Sf21 cells/mL with the recombinant baculovirus at a multiplicity of infection of 0.1-0.2 at 27° C. The infected culture was harvested 48 to 64 h later by centrifugation at 4° C. The cell pellet was homogenized in 50 mM NaPO4, pH 7.5, 40% glycerol (w/v), 2 mM β-mercaptoethanol, in presence of a cocktail of protease inhibitors. […] Fluorescence of the N-terminal product was monitored on a Perkin-Elmer LS-50B fluorometer equipped with a 96-well plate reader (excitation wavelength: 325 nm; emission wavelength: 423 nm).
The % inhibition was calculated with the following equation: […]

The EC50 is the concentration that produces a half-maximal response. For orientation: IC50 means the concentration at which inhibition is half-maximal. Low values mean greater potency, high ones weaker potency.

T1 sequence (P26663 1027-1657): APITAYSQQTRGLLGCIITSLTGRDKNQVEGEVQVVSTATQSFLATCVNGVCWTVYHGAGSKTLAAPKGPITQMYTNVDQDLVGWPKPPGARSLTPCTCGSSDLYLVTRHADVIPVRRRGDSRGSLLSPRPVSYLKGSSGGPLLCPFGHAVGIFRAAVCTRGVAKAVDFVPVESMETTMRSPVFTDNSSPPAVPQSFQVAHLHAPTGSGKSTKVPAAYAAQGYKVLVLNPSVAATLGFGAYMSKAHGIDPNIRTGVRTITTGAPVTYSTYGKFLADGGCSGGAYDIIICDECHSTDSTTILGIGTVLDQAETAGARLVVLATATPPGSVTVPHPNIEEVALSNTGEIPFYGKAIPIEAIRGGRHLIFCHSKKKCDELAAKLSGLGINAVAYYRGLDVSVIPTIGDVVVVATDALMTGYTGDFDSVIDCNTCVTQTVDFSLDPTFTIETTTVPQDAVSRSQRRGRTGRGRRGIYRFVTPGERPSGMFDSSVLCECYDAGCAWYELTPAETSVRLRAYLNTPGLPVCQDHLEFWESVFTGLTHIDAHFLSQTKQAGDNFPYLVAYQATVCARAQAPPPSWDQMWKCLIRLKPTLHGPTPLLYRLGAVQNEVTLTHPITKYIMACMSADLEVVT
T1 sequence (P26663 1658-1711): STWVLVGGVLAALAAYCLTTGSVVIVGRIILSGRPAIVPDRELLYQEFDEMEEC

Turning to `C=C[C@@H]1C[C@]1(NC(=O)[C@@H]1C[C@@H](Oc2cc(-c3ccccc3)nc3cc(OC)ccc23)CN1C(=O)[C@@H](NC(=O)OC(C)(C)C)C(C)C)C(=O)O` [compound 601], the EC50 in assay [1] worked out at 8.2 µM. In assay [2], this compound had an IC50 of 0.03 µM.
